Experimental data published in patent publication US6906205B2, “Spiro and dispiro 1,2,4-trioxolane antimalarials” (Medicines for Malaria Venture MMV, priority 2002, dated 2005).
≈ marks a conversion by molar mass, not a printed value.

tested on: Schistosoma mansoni adult schistosomes (49-day-old); experiment: effect on adult schistosomes (49-day-old) in mice; type: in vivo; details: single 400 mg/kg per os
Experimental: Mice were infected with 100 Schistosoma mansoni cercariae […]. Each group was treated per os with OZ compounds at single doses of 200, 400, and 600 mg/kg. […] All groups were killed 4 weeks after treatment and the liver and intestine were removed and separated. The liver and intestine were compressed and alive male and female worms could be seen and counted.

Compound | % reduction of adult worms growth at day 49 after per os application of 400 mg/kg, TWR (%) | adult worms at day 49, per os 400 mg/kg, DEAD WORM (%)
CCS(=O)(=O)N1CCC2(CC1)OOC1(O2)C2CC3CC(C2)CC1C3 (stereo not drawn) [OZ79] | 4 | 0
O=C(O)C1CCC2(CC1)OOC1(O2)C2CC3CC(C2)CC1C3 (stereo not drawn) [OZ72] | – | 10
O=C1COC2(CCC3(CC2)OOC2(O3)C3CC4CC(C3)CC2C4)OC1 (stereo not drawn) [OZ130] | 0 | 8
Clc1ccc(C2(c3ccc(Cl)cc3)OOC3(O2)C2CC4CC(C2)CC3C4)cc1 (stereo not drawn) [OZ43] | 1 | 0
O=S1(=O)CCC2(CC1)OOC1(O2)C2CC3CC(C2)CC1C3 (stereo not drawn) [OZ50] | 12 | 4
C1=C(c2ccccc2)CCC2(C1)OOC1(O2)C2CC3CC(C2)CC1C3 (stereo not drawn) [OZ226] | 52 | 0
CCN(CC)CC[C@H]1CC[C@]2(CC1)OOC1(O2)C2CC3CC(C2)CC1C3 (stereo partly drawn) [OZ126] | 0 | 9

tested on: P. falciparum K1 strain (Thailand resistant to chloroquine); experiment: semiautomated microdilution assay, [3H]-hypoxanthine incorporation, K1 strain; type: cell-based, Plasmodium falciparum; details: K1 strain, 72 h incubation
In short: (§1)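 Intraerythrocytic stages from unsynchronised stock cultures are exposed to test compounds in a semiautomated microdilution format, and fifty percent inhibitory concentrations are then fitted by logit regression.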

Compound | IC50 (ng/ml) K1
CCS(=O)(=O)N1CCC2(CC1)OOC1(O2)C2CC3CC(C2)CC1C3 (stereo not drawn) [OZ79] | 0.38 ng/mL (≈ 1.06 nM)
O=C(O)C1CCC2(CC1)OOC1(O2)C2CC3CC(C2)CC1C3 (stereo not drawn) [OZ72] | 15 ng/mL (≈ 48.6 nM)
O=C1COC2(CCC3(CC2)OOC2(O3)C3CC4CC(C3)CC2C4)OC1 (stereo not drawn) [OZ130] | 0.62 ng/mL (≈ 1.77 nM)
Clc1ccc(C2(c3ccc(Cl)cc3)OOC3(O2)C2CC4CC(C2)CC3C4)cc1 (stereo not drawn) [OZ43] | 11 ng/mL (≈ 26.4 nM)
O=S1(=O)CCC2(CC1)OOC1(O2)C2CC3CC(C2)CC1C3 (stereo not drawn) [OZ50] | 1.1 ng/mL (≈ 3.5 nM)
C1=C(c2ccccc2)CCC2(C1)OOC1(O2)C2CC3CC(C2)CC1C3 (stereo not drawn) [OZ226] | 4.0/4.0 ng/ml
CCN(CC)CC[C@H]1CC[C@]2(CC1)OOC1(O2)C2CC3CC(C2)CC1C3 (stereo partly drawn) [OZ126] | 0.20 ng/mL (≈ 0.55 nM)
c1ccc2c(c1)-c1ccccc1C21OOC2(O1)C1CC3CC(C1)CC2C3 (stereo not drawn) [OZ94] | 57 ng/mL (≈ 165 nM)
CN1CCN(C(=O)NC[C@H]2CC[C@]3(CC2)OOC2(O3)C3CC4CC(C3)CC2C4)CC1 (stereo partly drawn) [OZ267] | 0.20 ng/mL (≈ 0.477 nM)

tested on: ANKA strain of P. berghei; experiment: single dose STI in vivo screen in infected mice; set-up: species or system Plasmodium berghei; details: percent reduction in parasitemia day 3 post-infection; single 10 mg/kg po in 3% ethanol and 7% Tween 80; mice
In short: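 Groups of 3-5 Moro SPF or NMRI mice infected with the ANKA strain of P. berghei received a single dose of trioxolane on day one post-infection. The compound was given in 3% ethanol and 7% Tween 80 or in SSV (0.5% w/v CMC, 0.5% v/v benzyl alcohol, 0.4% v/v Tween 80, 0.9% w/v sodium chloride in water). Antimalarial activity was scored as percent reduction in parasitemia on day three and as survival time versus untreated controls. Survival to day 30 counted as cure.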

Compound | Activity (%) po [%]
CCS(=O)(=O)N1CCC2(CC1)OOC1(O2)C2CC3CC(C2)CC1C3 (stereo not drawn) [OZ79] | 85
O=C1COC2(CCC3(CC2)OOC2(O3)C3CC4CC(C3)CC2C4)OC1 (stereo not drawn) [OZ130] | 98.8
Clc1ccc(C2(c3ccc(Cl)cc3)OOC3(O2)C2CC4CC(C2)CC3C4)cc1 (stereo not drawn) [OZ43] | 99.97
O=S1(=O)CCC2(CC1)OOC1(O2)C2CC3CC(C2)CC1C3 (stereo not drawn) [OZ50] | 77
C1=C(c2ccccc2)CCC2(C1)OOC1(O2)C2CC3CC(C2)CC1C3 (stereo not drawn) [OZ226] | 0
CCN(CC)CC[C@H]1CC[C@]2(CC1)OOC1(O2)C2CC3CC(C2)CC1C3 (stereo partly drawn) [OZ126] | 55
c1ccc2c(c1)-c1ccccc1C21OOC2(O1)C1CC3CC(C1)CC2C3 (stereo not drawn) [OZ94] | 21
CN1CCN(C(=O)NC[C@H]2CC[C@]3(CC2)OOC2(O3)C3CC4CC(C3)CC2C4)CC1 (stereo partly drawn) [OZ267] | 99.92

same assay, conditions: percent reduction in parasitemia day 3 post-infection; single 10 mg/kg po in 3% ethanol and 7% Tween 80; mice; 10 mg/kg

Compound | Activity (%) po [%]
O=C(O)C1CCC2(CC1)OOC1(O2)C2CC3CC(C2)CC1C3 (stereo not drawn) [OZ72] | 97

same assay, conditions: percent reduction in parasitemia day 3 post-infection; single 10 mg/kg sc in 3% ethanol and 7% Tween 80; mice

Compound | Activity (%) sc [%]
CCS(=O)(=O)N1CCC2(CC1)OOC1(O2)C2CC3CC(C2)CC1C3 (stereo not drawn) [OZ79] | 99.94
O=C1COC2(CCC3(CC2)OOC2(O3)C3CC4CC(C3)CC2C4)OC1 (stereo not drawn) [OZ130] | 98.6
Clc1ccc(C2(c3ccc(Cl)cc3)OOC3(O2)C2CC4CC(C2)CC3C4)cc1 (stereo not drawn) [OZ43] | 97
O=S1(=O)CCC2(CC1)OOC1(O2)C2CC3CC(C2)CC1C3 (stereo not drawn) [OZ50] | 97
C1=C(c2ccccc2)CCC2(C1)OOC1(O2)C2CC3CC(C2)CC1C3 (stereo not drawn) [OZ226] | 99.92
CCN(CC)CC[C@H]1CC[C@]2(CC1)OOC1(O2)C2CC3CC(C2)CC1C3 (stereo partly drawn) [OZ126] | 99.44
c1ccc2c(c1)-c1ccccc1C21OOC2(O1)C1CC3CC(C1)CC2C3 (stereo not drawn) [OZ94] | 11
CN1CCN(C(=O)NC[C@H]2CC[C@]3(CC2)OOC2(O3)C3CC4CC(C3)CC2C4)CC1 (stereo partly drawn) [OZ267] | 99.97

same assay, conditions: percent reduction in parasitemia day 3 post-infection; single 10 mg/kg sc in 3% ethanol and 7% Tween 80; mice; 10 mg/kg

Compound | Activity (%) sc [%]
O=C(O)C1CCC2(CC1)OOC1(O2)C2CC3CC(C2)CC1C3 (stereo not drawn) [OZ72] | 95

same assay, conditions: percent reduction in parasitemia day 3 post-infection; single po dose in standard suspending vehicle (SSV); mice

Compound | Activity (%) SSVpo [%]
O=C1COC2(CCC3(CC2)OOC2(O3)C3CC4CC(C3)CC2C4)OC1 (stereo not drawn) [OZ130] | 98.9
Clc1ccc(C2(c3ccc(Cl)cc3)OOC3(O2)C2CC4CC(C2)CC3C4)cc1 (stereo not drawn) [OZ43] | 18
O=S1(=O)CCC2(CC1)OOC1(O2)C2CC3CC(C2)CC1C3 (stereo not drawn) [OZ50] | 57
C1=C(c2ccccc2)CCC2(C1)OOC1(O2)C2CC3CC(C2)CC1C3 (stereo not drawn) [OZ226] | 0
CCN(CC)CC[C@H]1CC[C@]2(CC1)OOC1(O2)C2CC3CC(C2)CC1C3 (stereo partly drawn) [OZ126] | 72
c1ccc2c(c1)-c1ccccc1C21OOC2(O1)C1CC3CC(C1)CC2C3 (stereo not drawn) [OZ94] | 0
CN1CCN(C(=O)NC[C@H]2CC[C@]3(CC2)OOC2(O3)C3CC4CC(C3)CC2C4)CC1 (stereo partly drawn) [OZ267] | 99.89

same assay, conditions: single 10 mg/kg po in 3% ethanol and 7% Tween 80; untreated control 5.6 ± 0.3

Compound | Survival (days) po [days]
CCS(=O)(=O)N1CCC2(CC1)OOC1(O2)C2CC3CC(C2)CC1C3 (stereo not drawn) [OZ79] | 7.0
O=C1COC2(CCC3(CC2)OOC2(O3)C3CC4CC(C3)CC2C4)OC1 (stereo not drawn) [OZ130] | 9.0
Clc1ccc(C2(c3ccc(Cl)cc3)OOC3(O2)C2CC4CC(C2)CC3C4)cc1 (stereo not drawn) [OZ43] | 8.9
O=S1(=O)CCC2(CC1)OOC1(O2)C2CC3CC(C2)CC1C3 (stereo not drawn) [OZ50] | 7.0
C1=C(c2ccccc2)CCC2(C1)OOC1(O2)C2CC3CC(C2)CC1C3 (stereo not drawn) [OZ226] | 5.0
CCN(CC)CC[C@H]1CC[C@]2(CC1)OOC1(O2)C2CC3CC(C2)CC1C3 (stereo partly drawn) [OZ126] | 7.0
c1ccc2c(c1)-c1ccccc1C21OOC2(O1)C1CC3CC(C1)CC2C3 (stereo not drawn) [OZ94] | 6.0
CN1CCN(C(=O)NC[C@H]2CC[C@]3(CC2)OOC2(O3)C3CC4CC(C3)CC2C4)CC1 (stereo partly drawn) [OZ267] | 8.3

same assay, conditions: single 10 mg/kg po in 3% ethanol and 7% Tween 80; untreated control 5.6 ± 0.3; 10 mg/kg

Compound | Survival (days) po [days]
O=C(O)C1CCC2(CC1)OOC1(O2)C2CC3CC(C2)CC1C3 (stereo not drawn) [OZ72] | 7.7

same assay, conditions: single 10 mg/kg sc in 3% ethanol and 7% Tween 80; untreated control 5.6 ± 0.3

Compound | Survival (days) sc [days]
CCS(=O)(=O)N1CCC2(CC1)OOC1(O2)C2CC3CC(C2)CC1C3 (stereo not drawn) [OZ79] | 9.3
O=C1COC2(CCC3(CC2)OOC2(O3)C3CC4CC(C3)CC2C4)OC1 (stereo not drawn) [OZ130] | 7.3
Clc1ccc(C2(c3ccc(Cl)cc3)OOC3(O2)C2CC4CC(C2)CC3C4)cc1 (stereo not drawn) [OZ43] | 7.3
O=S1(=O)CCC2(CC1)OOC1(O2)C2CC3CC(C2)CC1C3 (stereo not drawn) [OZ50] | 7.3
C1=C(c2ccccc2)CCC2(C1)OOC1(O2)C2CC3CC(C2)CC1C3 (stereo not drawn) [OZ226] | 11.0
CCN(CC)CC[C@H]1CC[C@]2(CC1)OOC1(O2)C2CC3CC(C2)CC1C3 (stereo partly drawn) [OZ126] | 8.5
c1ccc2c(c1)-c1ccccc1C21OOC2(O1)C1CC3CC(C1)CC2C3 (stereo not drawn) [OZ94] | 5.3
CN1CCN(C(=O)NC[C@H]2CC[C@]3(CC2)OOC2(O3)C3CC4CC(C3)CC2C4)CC1 (stereo partly drawn) [OZ267] | 9.3

same assay, conditions: single 10 mg/kg sc in 3% ethanol and 7% Tween 80; untreated control 5.6 ± 0.3; 10 mg/kg

Compound | Survival (days) sc [days]
O=C(O)C1CCC2(CC1)OOC1(O2)C2CC3CC(C2)CC1C3 (stereo not drawn) [OZ72] | 6.7

same assay, conditions: single po dose in SSV; untreated control 5.6 ± 0.3

Compound | Survival (days) SSVpo [days]
O=C1COC2(CCC3(CC2)OOC2(O3)C3CC4CC(C3)CC2C4)OC1 (stereo not drawn) [OZ130] | 8.0
Clc1ccc(C2(c3ccc(Cl)cc3)OOC3(O2)C2CC4CC(C2)CC3C4)cc1 (stereo not drawn) [OZ43] | 5.4
O=S1(=O)CCC2(CC1)OOC1(O2)C2CC3CC(C2)CC1C3 (stereo not drawn) [OZ50] | 5.7
C1=C(c2ccccc2)CCC2(C1)OOC1(O2)C2CC3CC(C2)CC1C3 (stereo not drawn) [OZ226] | 5.3
CCN(CC)CC[C@H]1CC[C@]2(CC1)OOC1(O2)C2CC3CC(C2)CC1C3 (stereo partly drawn) [OZ126] | 6.7
c1ccc2c(c1)-c1ccccc1C21OOC2(O1)C1CC3CC(C1)CC2C3 (stereo not drawn) [OZ94] | 5.7
CN1CCN(C(=O)NC[C@H]2CC[C@]3(CC2)OOC2(O3)C3CC4CC(C3)CC2C4)CC1 (stereo partly drawn) [OZ267] | 8.7

tested on: P. falciparum NF54 strain (sensitive to standard antimalarials); experiment: semiautomated microdilution assay, [3H]-hypoxanthine incorporation, NF54 strain; type: cell-based, Plasmodium falciparum; details: NF54 strain, 72 h incubation
In short: as §1

Compound | IC50 (ng/ml) NF54
CCS(=O)(=O)N1CCC2(CC1)OOC1(O2)C2CC3CC(C2)CC1C3 (stereo not drawn) [OZ79] | 0.81 ng/mL (≈ 2.27 nM)
O=C(O)C1CCC2(CC1)OOC1(O2)C2CC3CC(C2)CC1C3 (stereo not drawn) [OZ72] | 13 ng/mL (≈ 42.2 nM)
O=C1COC2(CCC3(CC2)OOC2(O3)C3CC4CC(C3)CC2C4)OC1 (stereo not drawn) [OZ130] | 0.94 ng/mL (≈ 2.68 nM)
Clc1ccc(C2(c3ccc(Cl)cc3)OOC3(O2)C2CC4CC(C2)CC3C4)cc1 (stereo not drawn) [OZ43] | 7.5 ng/mL (≈ 18 nM)
O=S1(=O)CCC2(CC1)OOC1(O2)C2CC3CC(C2)CC1C3 (stereo not drawn) [OZ50] | 1.2 ng/mL (≈ 3.82 nM)
C1=C(c2ccccc2)CCC2(C1)OOC1(O2)C2CC3CC(C2)CC1C3 (stereo not drawn) [OZ226] | 4.0/4.0 ng/ml
CCN(CC)CC[C@H]1CC[C@]2(CC1)OOC1(O2)C2CC3CC(C2)CC1C3 (stereo partly drawn) [OZ126] | 0.50 ng/mL (≈ 1.38 nM)
c1ccc2c(c1)-c1ccccc1C21OOC2(O1)C1CC3CC(C1)CC2C3 (stereo not drawn) [OZ94] | 28 ng/mL (≈ 80.8 nM)
CN1CCN(C(=O)NC[C@H]2CC[C@]3(CC2)OOC2(O3)C3CC4CC(C3)CC2C4)CC1 (stereo partly drawn) [OZ267] | 0.34 ng/mL (≈ 0.81 nM)
